Assay [1] has as its system HCV RNA replicon in cell line ET (luc-ubi-neo/ET), human Huh7 hepatoma. Briefly: HCV RNA replicon assay (Example 5, Method A). It is filed as cell-based. The note with it: Hepatitis C virus, Huh-7, 72 h. As to the method: The compounds were assayed to evaluate the antiviral activity and cytotoxicity of compounds in vitro using HCV RNA replicons. This assay used the cell line ET (luc-ubi-neo/ET), which is a human Huh7 hepatoma cell line that contains an HCV RNA replicon with a stable luciferase (Luc) reporter and cell culture-adaptive mutations. The HCV RNA levels were directly measured by viral specific TaqMan RT-PCR:
The ET cell line was grown in Dulbecco's modified essential media (DMEM), 10% fetal bovine serum (FBS), 1% penicillin-streptomycin (pen-strep), 1% glutamine, 250 μg/mL G418 in a 5% CO2 incubator at 37° C. All cell culture reagents were obtained from Mediatech (Manassas, Va.). Cells were trypsinized (1% trypsin:EDTA) and plated out at 5×10^3 cells/well in white 96-well assay plates (Costar) dedicated to cell number (cytotoxicity) or antiviral activity assessments. Drugs were added at six 3-fold concentrations each and the assay was run in DMEM, 5% FBS, 1% pen-strep, 1% glutamine. Human interferon alpha-2b (PBL Biolabs, New Brunswick, N.J.) was included in each run as a positive control compound. […] Antiviral activity was measured by analyzing replicon-derived luciferase activity using the Steady-Glo Luciferase Assay System (Promega, Madison, Wis.) according to manufacturer's instruction. The number of cells in each well was determined by CytoTox-1 reagent (Promega). […]
In general terms: A replicon is a self-replicating genome or part of one, used to study replication in cells.

Another assay deals with HCV (R155K) mutant. Briefly: Mass spectrometric analysis of covalent modification, R155K mutant. It is filed as binding. The note with it: 3 hours reaction time. As to the method:
(§1) Mass spectrometric analysis of HCV wild type or HCV variants (C159S, A156S, R155K, D168A, A156T, and D168V) in the presence of test compound was performed. 100 pmols of HCV wild type (Bioenza Calif.) was incubated with test compound for 1 hr and 3 hrs at 10-fold excess of test compound to protein. 1 μL aliquots of the samples (total volume of 4.24 μL) were diluted with 10 μL of 0.1% TFA prior to micro C4 ZipTipping directly onto the MALDI target using Sinapinic acid as the desorption matrix (10 mg/mL in 0.1% TFA:Acetonitrile 50:50). Analyses were performed on a Shimadzu Biotech Axima TOF (Shimadzu Instruments) matrix-assisted-laser desorption/ionization Time-of-Flight (MALDI-TOF) mass spectrometer. The same procedure was carried out on 100 pmols of HCV C159S mutant of HCV protease for 3 hrs at 10-fold excess of test compound to protein.

A further assay deals with T1, HCV (A156T) mutant (Hepatitis C virus genotype 1b, UniProt P26663, A1182T).
T1 construct: genotype 1b mutations in the NS3 protease of A156T, A156S, D168V, D168A, and R155K
Briefly: Mass spectrometric analysis of covalent modification, A156T mutant. It is filed as binding. The note with it: 3 hours reaction time. As to the method: as §1

The target in another assay is T2, HCV (D168V) mutant (Hepatitis C virus genotype 1b, UniProt P26663, D1194V).
T2 construct: genotype 1b mutations in the NS3 protease of A156T, A156S, D168V, D168A, and R155K
Briefly: Mass spectrometric analysis of covalent modification, D168V mutant. Format: binding. The note with it: 3 hours reaction time. As to the method:
as §1

Another assay has as its target T3, HCV (A156S) mutant (Hepatitis C virus genotype 1b, UniProt P26663, A1182S).
T3 construct: genotype 1b mutations in the NS3 protease of A156T, A156S, D168V, D168A, and R155K
Briefly: Mass spectrometric analysis of covalent modification, A156S mutant. The note with it: 3 hours reaction time. Format: binding. As to the method: as §1

Assay [2] has as its target T4, NS3 protease self-cleavage in Huh-7-Luc-Neo-ET cells (Hepatitis C virus genotype 1b, UniProt Q9WMX2, E1202G/T1280I).
T4 construct: host or cells: Huh-7-Luc-Neo-ET replicon cells (human hepatoma Huh7)
Format: cell-based, HCV. Conditions: replicon cells treated for 16 hours, continuous exposure (FIG. 3). As to the method: Inhibition of Protease Self Cleavage
The remaining wells were rinsed 2× with PBS then fed with Replicon Media and returned to the incubator.
Cell lysates were separated by SDS-Page (4-20%) and transferred to Immobilon-P PVDF membrane (Millipore Corporation, MA) and blotted with polyclonal anti NS3 antibody (Bioenza, Calif.). Blots were scanned on an Odyssey infrared scanner from Licor and the FL band and cleavage products were quantified separately using the Licor software provided with the scanner. The cleavage product was calculated as a percentage of the total NS3 in each sample and then normalized to the DMSO control so that the DMSO control reflects 100% activity.

As usually defined, the IC50 is the concentration needed to halve the response being measured. The term IC90 denotes the point of the concentration-response curve where the effect stands at 90%. For the compound `C=C[C@@H]1C[C@]1(NC(=O)[C@@H]1C[C@@H](Oc2cc(-c3ccccc3)nc3cc(OC)ccc23)CN1C(=O)C(NC(=O)OC(C)(C)C)[C@@H](C)OC(=O)/C=C/C)C(=O)NS(=O)(=O)C1CC1` (stereo partly shown) [Compound 3], the IC50 in assay [1] (read-out: Inhibition, Replicon (IC50)) is under 10 nM. In addition, in assay [1] (read-out: Inhibition, Replicon, IC90 value), the IC90 is under 10 nM.

Take `C=CC(=O)N(C)C[C@H](NC(=O)OC(C)(C)C)C(=O)N1C[C@H](OC(=O)N2Cc3cccc(F)c3C2)C[C@H]1C(=O)N[C@]1(C(=O)NS(=O)(=O)C2CC2)C[C@H]1C=C` [Compound 4]: the “conversion via covalent modification (mass spectrometry)” value is listed as “good conversion” with HCV (R155K) mutant, “complete conversion” at HCV (A156T) mutant, “complete conversion” on HCV (D168V) mutant and “complete conversion” on HCV (A156S) mutant.

With `CC(C)(C)OC(=O)NC1CN(C(=O)CCl)CCC/C=C\[C@@H]2C[C@@]2(C(=O)NS(=O)(=O)C2CC2)NC(=O)[C@@H]2C[C@@H](OC(=O)N3Cc4cccc(F)c4C3)CN2C1=O` (stereo partly shown) [Compound 8], the “NS3 internal self-cleavage products after treatment” value in assay [2] was “inhibited”.

For the origin of these results see patent US8603737B2, “Methods for identifying HCV protease inhibitors” (priority 2008, dated 2013).
